Reference: US11965886B2, “Method of immobilizing a cell on a support using compounds comprising a polyethylene glycol moiety” (Roche Diagnostics Operations, Inc., priority 2013, dated 2024)
Values joined by “and” are separate entries in the source; they are usually repeats but may differ in a detail not shown here. Identical values can stand only once.

What was measured:
Assay type in all cases: cell-based
WBCs [1] = assay: Labelling of cells using compounds (staining/uptake)
Description: (§1) 2. Labelling of Cells Using Compounds Useful in Methods of the Invention

MDA-MB468 = assay: as above
Description: as §1

U937 = assay: as above
Description: as §1

Epithelial cells = assay: as above
Description: as §1

Hela = assay: as above
Description: as §1

Jurkats = assay: as above
Description: as §1

COS 7 = assay: as above
Description: as §1

NIH 3T3 = assay: as above
Description: as §1

CHO = assay: as above
Description: as §1

WBC [2] = assay: WBC recovery rate after centrifugation (cell stabilization, Example 5); conditions: Centrifugation: 20 min, 500×g
WBCs [3] = assay: Immobilization of cells: recovery rate of cells on SA (streptavidin) plate or untreated plate (Example 3)
Protocol: The following applies for modular description of the compounds below: X=hydrophobic moiety, […]=fluorescein In the following experiment, the recovery rate of cells was determined.

WBC [4] = assay: WBC recovery rate after centrifugation (cell stabilization, Example 5); conditions: Centrifugation: 20 min, 300×g; 10 min, 1 h, 2 h incubation
Protocol: A) WBC Recovery Rate after Centrifugation and Cell Immobilization Using Different Molecules
Centrifugation characteristics: 10 min, 300×g.
B) WBC Recovery Rate after Centrifugation Using Different Compounds—Different Points of Time
Centrifugation characteristics: 10 min, 300×g. A: Choleseryl-TEG-Cholesteryl-TEG-(SpacerC18)7-Fluos-Biotin-TEG.
C) WBC Recovery Rate after Centrifugation—Different Experimenters
Centrifugation characteristics: 10 min, 300×g. Molecule: Cholesteryl-TEG-Cholesteryl-TEG-(SpacerC18)7-Fluos-Biotin-TEG.
D) WBC Recovery Rate after Centrifugation—Different Points of Time and Centrifugation Settings
Centrifugation characteristics: 20 min, 300×g.

Compound | Labelling (staining/uptake) of cells (WBCs [1]) | Labelling (staining/uptake) of cells (MDA-MB468) | Labelling (staining/uptake) of cells (U937) | Labelling (staining/uptake) of cells (Epithelial cells) | Labelling (staining/uptake) of cells (Hela) | Labelling (staining/uptake) of cells (Jurkats) | Labelling (staining/uptake) of cells (COS 7) | Labelling (staining/uptake) of cells (NIH 3T3) | Labelling (staining/uptake) of cells (CHO) | also measured
5′-Cholesteryl-TEG-PEG2000-Fluos-3′ [29.891132] | ✓ not all | ✓ | ✓ | ✓ |  |  |  |  |  | 
5′-alphaTocopherolTEG-PEG2000-Fluos-3′ [29.891131] | ✓ not all | ✓ | ✓ | ✓ |  |  |  |  |  | 
CCCCCCCCCCCCCCCC(=O)OC[C@H](COP(=O)(O)OCCNC(=O)CCc1ccc2n1[B-](F)(F)[N+]1=C(C)C=C(C)C1=C2)OC(=O)CCCCCCCCCCCCCCC.CCN(CC)CC [Phosphatidylethanolamine, N-(4,4-difluoro-5,7-dimethyl-4-bora-3a,4a-diaza-s-indacene-3-propionyl)-1,2-dihexadecanoyl-sn-glycero-3-phosphoethanolamine, triethylammonium salt] |  |  |  |  | x/✓ very weak |  |  |  |  | 
CCCCCCCCCCCCCCCCCCCCCC[N+]1=C(/C=C/C=C2/N(CCCCCCCCCCCCCC)c3ccccc3C2(C)C)C(C)(C)c2ccccc21.[I-] [PKH26] |  | ✓ | ✓ | ✓ not all | ✓* | ✓ | ✓ | ✓ | ✓ | 
CCCCC/C=C\C/C=C\CCCCCCCCN1C(=CC=CC2=[N+](CCCCCCCC/C=C\C/C=C\CCCCC)c3ccccc3C2(C)C)C(C)(C)c2ccccc21.[O-][Cl+3]([O-])([O-])[O-] [Linol, 1,1′-dilinoleyl-3,3,3′,3′-tetramethylindocarbocyanine perchlorate] |  | ✓ | ✓ | ✓ | ✓ | ✓ | ✓ | ✓ | ✓ | 
CCCCCCCCCCCCC/C=C/[C@@H](O)[C@H](COP(=O)([O-])OCC[N+](C)(C)C)NC(=O)CCCCc1ccc2n1[B-](F)(F)[N+]1=C(C)C=C(C)C1=C2 [Sphingomyelin, N-(4,4-difluoro-5,7-dimethyl-4-bora-3a,4a-diaza-s-indacene-3-pentanoyl)sphingosyl phosphocholine] | (x)- very bad |  |  | ✓ | ✓ |  |  |  | x very weak | 
5′-CholesterylTEG-CholesterylTEG-PEG2000-Fluos-3′ [29.891133] |  | ✓ | ✓ | ✓ | ✓ | ✓ | ✓ | ✓ | ✓ | 
CCCCCCCCCCCCCCCCCCN1C(=CC=CC2=[N+](CCCCCCCCCCCCCCCCCC)c3ccccc3C2(C)C)C(C)(C)c2ccccc21.[O-][Cl+3]([O-])([O-])[O-] [1,1′-Dioctadecyl-3,3,3′,3′-tetramethylindocarbocyanin perchlorate] | ✓ not all | ✓ | ✓ | ✓ | ✓ | ✓ | ✓ | ✓* | ✓ | 
5′-CholesterylTEG-CholesterylTEG-(SpacerC18)7-dT(Determ. of concentration)-BiotinTEG-3′ [compound 1234] |  |  |  |  |  |  |  |  |  | WBC recovery rate after centrifugation, performance ranking (WBC [2]): best performance; Recovery Rate (WBCs [3]; 10 pmol/10e6 cells): 9.6%; Recovery Rate (WBCs [3]; 100 pmol/10e6 cells): 18.8%; Recovery Rate (WBCs [3]; 300 pmol/10e6 cells): 26.8%; Recovery Rate (WBCs [3]; 500 pmol/10e6 cells): 24.9%; Recovery Rate (WBCs [3]; 10 nmol/10e6 cells): 99.7%; Recovery Rate (WBCs [3]; WBCs, 350 pmol/10e6 cells, 0.000003% Tween21): 13.0% and 25.0%; Recovery Rate (WBCs [3]; WBCs, 350 pmol/10e6 cells, 0.00001% Tween20): 14.0% and 23.0%; Recovery Rate (WBCs [3]; WBCs, 350 pmol/10e6 cells, 0.00003% Tween20): 12.0% and 20.0%; Recovery Rate (WBCs [3]; WBCs, 350 pmol/10e6 cells, 0.00003% Tween22): 22.0% and 36.0%; Recovery Rate (WBCs [3]; WBCs, 350 pmol/10e6 cells, 0.0001% Tween21): 22.0% and 28.0%; Recovery Rate (WBCs [3]; WBCs, 350 pmol/10e6 cells, 0.0003% Tween20): 12.0% and 18.0%; Recovery Rate (WBCs [3]; WBCs, 350 pmol/10e6 cells, 0.001% Tween20): 10.0% and 15.0%; Recovery Rate (WBCs [3]; WBCs, 350 pmol/10e6 cells, 1:1 diluted): 22.0% and 25.0%; Recovery Rate (WBCs [3]; WBCs, 350 pmol/10e6 cells, US + 10′ 98° C.): 27.0% and 23.0%; Recovery Rate (WBCs [3]; WBCs, 350 pmol/10e6 cells, not evaporated, VIVA Spin): 18.0% and 19.0%; Recovery Rate (WBCs [3]; WBCs, 350 pmol/10e6 cells, untreated): 17.0% and 13.0%; Recovery Rate (WBCs [3]; WBCs, 1000 pmol/10e6 cells): 35.4%; Recovery Rate (WBCs [3]; WBCs, 1000 pmol/10e6 cells, not evaporated, VIVA Spin): 42.0% and 45.0%; WBC recovery rate after centrifugation, performance ranking (WBC [4]): best performance
3′-(Myristic acid)2-PEG2000-dT-Biotin-TEG-5′ INVERS [compound 1255] |  |  |  |  |  |  |  |  |  | WBC recovery rate after centrifugation, performance ranking (WBC [2]): followed by molecule 1255 and 1254; WBC recovery rate after centrifugation, performance ranking (WBC [4]): followed by compound 1255 and 1254
